{"source": "paper PMC6920923", "about": "“Improving In Vivo Brain Delivery of Monoclonal Antibody Using Novel Cyclic Peptides” (Pharmaceutics, 2019)", "key": {"[1]": {"tested_on": "primary brain endothelial cell monolayers", "settings": "ref [33] Bocsik et al.; cited from earlier work", "source_text": "(§1) This study was also aimed at developing cyclic ADTHAV peptide by combining important residues from the ADT peptide (i.e., ADTC5) and HAV peptide (i.e., HAV6). Because ADTC5 and HAV6 bind at different sites on the EC1 domain, combining the two active sequences could provide synergistic activity form both parent peptides on cyclic ADTHAV. In this case, cyclic ADTHAV contains the Thr-Pro-Pro-Val sequence from ADTC5 and Ser-His-Ala-Val sequence from HAV6. The hypothesis is that the combined sequence enhances BBB modulatory activity better than the parent ADTC5 and HAV6. The selection of the Thr-Pr ..."}, "[2]": {"tested_on": "MDCK cell monolayers / in vivo BBB", "settings": "vs ADTC1 or ADTC5; ref [20]; cited from earlier work", "source_text": "as §1"}, "brain (C57BL/6 mice) [3]": {"tested_on": "brain (C57BL/6 mice)", "settings": "recent studies, ref not given; cited from earlier work", "source_text": "Treating brain diseases is a challenge as it is difficult to deliver drugs through the BBB into the brain. As many approaches to solve this problem have failed clinically, it is important to investigate new methods to improve brain delivery of molecules for diagnosing and treating brain diseases. This study was focused on designing, synthesizing, and evaluating new cyclic peptides for modulating the BBB to increase paracellular protein delivery into the brain."}, "EC1 domain of E-cadherin": {"molecular_target": "T1, EC1 domain of E-cadherin (Homo sapiens, UniProt P12830)", "T1 sequence (P12830 155-262 limits assumed)": "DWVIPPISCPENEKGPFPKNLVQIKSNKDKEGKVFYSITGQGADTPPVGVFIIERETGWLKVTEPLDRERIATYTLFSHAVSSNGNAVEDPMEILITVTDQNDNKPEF", "settings": "NMR studies; ref [26]; cited from earlier work", "source_text": "Cadherin peptides interrupt the cadherin–cadherin interactions by binding to the extracellular domains of cadherins allowing delivered molecules to pass through the […] of the BBB. […] Using the X-ray structure of C-cadherin as a model, it is seen that the cadherin molecules can form cis- and trans-interactions with each other in a homotypic fashion. The cis-cadherin interactions were formed via binding of the EC1 domain from one ca ..."}, "brain [4]": {"tested_on": "brain", "settings": "cited from earlier work", "description": "(§2) Several attempts have been made to overcome this challenge using various invasive and non-invasive methods. Intracerebral ventricular (ICV) delivery is an invasive injection technique in which drug substances are administered directly into the cerebrospinal fluid in cerebral ventricles. Alternatively, many non-invasive methods have been investigated in vivo with various levels of success using receptor-mediated drug delivery systems, liposomes, microbubble-enhanced diagnostic ultrasound (MEUS), and nanoparticles. The most successful non-invasive method for delivering drugs to ..."}, "[5]": {"tested_on": "medulloblastoma brain tumor", "settings": "ref [24], cited from earlier work", "description": "as §2"}, "BBB [6]": {"tested_on": "BBB", "settings": "ref [22], cited from earlier work", "source_text": "Treating brain diseases is a challenge as it is difficult to deliver drugs through the BBB into the brain. As many approaches to solve this problem have failed clinically, it is important to investigate new methods to improve brain delivery of molecules for diagnosing and treating brain diseases. This study was focused on designing, synthesizing, and evaluating new cyclic peptides for modulating the BBB to increase paracellular protein delivery into the brain. […] This is because it is dangerous to keep the BBB open for a long period of time, allowing unwanted molecules to enter the brain. However, it is necessary to maintain the opening for an adequate amount of time to allow the delivered molecule to enter the brain with the necessary dose. For example, HAV6 has an opening window of less than 1 h to allow a small molecule such as IRdye-R800 and gadopentetic acid (Gd-DTPA) to enter the brain, while ADTC5 has a durati ..."}, "BBB [7]": {"tested_on": "BBB", "settings": "cited from earlier work", "description": "The duration of time of the BBB opening is an important factor to consider for using cadherin peptides to deliver molecules to the brain. This is because it is dangerous to keep the BBB open for a long period of time, allowing unwanted molecules to enter the brain. However, it is necessary to maintain the opening for an adequate amount of time to allow the delivered molecule to enter the brain with the necessary dose. For example, HAV6 has an opening window of less than 1 h to allow a small molecule such as IRdye-R800 and gadopentetic acid (Gd-DTPA) to enter the brain, while ADTC5 has a durati ..."}, "brains of C57BL/6 mice": {"tested_on": "brains of C57BL/6 mice", "assay": "In vivo brain delivery of IRdye800CW-IgG mAb (NIRF quantification)", "settings": "n = 3", "description": "The activity of each peptide in enhancing BBB penetration was evaluated by delivering IRdye800CW donkey anti-goat IgG mAb in C57BL/6 mice; the amounts of mAb in the brain were determined using near infrared fluorescence (NIRF) imaging. Each group contains 3 mice per group (n = 3) with a mixture of male and female mice, selected randomly for each arm of the study. The injection solution was prepared by adding 600 µL PBS into 0.5 mg lyophilized IgG mAb; then, approximately 1.5 mg lyophilized peptide was added into the mixture yielding the injectable formulation. A 100 µL solution of a mixture containing IgG mAb (21.6 nmol/kg) along with 13 µmol/kg peptide was administered via tail vein. As a control, 100 µL of IgG mAb alone was administered via i.v. route. After the delivered molecules had been circulating for 15 min, the mice were sacrificed; then, a mixture of PBS with 0.5% Tween-20 was administered for cardiac perfusion to remove the blood and delivered molecules from the brain microvessels. The brain and other organs such as lung, heart, spleen, liver, and kidney were harvested and rinsed with PBS. The isolated organs were scanned with Odyssey® CLx for mAb quantification.\nThe brain deposition of IgG mAb was also quantified by NIRF imaging in brain homogenates. The isolated brains were mechanically homogenized in 2.0 mL of PBS. To make the standard solutions, IRDye800CW IgG mAb stock solution (70 µg/mL) was prepared; it was then diluted with various amounts of PBS to make six different mAb concentrations. To generate a calibration curve, the brain homogenate (200 µL) was aliquoted out to a 96-well plate. A total of 10 µL of each concentration of IgG mAb was added to three different wells of blank brain homogenates. The standard spiked homogenates were at a range of 10–200 ng/mL IgG mAb in brain homogenate. The wells were scanned using the Odyssey® CLx scanner, and the signal intensities vs. concentrations of mAb per gram of brain were used to generate a calibration curve.\nANOVA with Student–Newman–Keuls was used to compare the data for determining statistical significance for IgG mAb deposition in the brains. A p-value of less than 0.05 was used as a criterion for a significant difference in data comparison. Numeric results are presented as: mean ± SEM.\nA calibration curve was generated to determine the amount of IgG mAb in the brain by spiking blank brain homogenates with a concentration range from 10 to 200 ng/mL, and good linearity with R^2 ≥ 0.98 was achieved. […] The average amounts of IgG mAb in the brains of HAV6-treated and control animals were 3.4 ± 0.4 and 4.0 ± 0.5 pmol/g brain, respectively. In contrast, the average amounts of mAb in the brains of cyclic HAVN1- and HAVN2-treated mice were 8.6 ± 0.5 and 8.8 ± 0.6 pmol/g brain, respectively. The BBB modulatory activities of ADTC5, linear ADTHAV, and cyclic ADTHAV were also compared to the control (Figure 5). […] The average brain deposition of IgG mAb were 11.8 ± 0.5, 15.7 ± 0.8, and 13.3 ± 0.7 pmol/g brain for linear ADTHAV, cyclic ADTHAV, and ADTC5, respectively."}, "brain (C57BL/6 mice) [8]": {"tested_on": "brain (C57BL/6 mice)", "settings": "peptide 13 µmol/kg, albumin 21.6 nmol/kg; ref not given; cited from earlier work", "source_text": "Treating brain diseases is a challenge as it is difficult to deliver drugs through the BBB into the brain. As many approaches to solve this problem have failed clinically, it is important to investigate new methods to improve brain delivery of molecules for diagnosing and treating brain diseases. This study was focused on designing, synthesizing, and evaluating new cyclic peptides for modulating the BBB to increase paracellular protein delivery into the brain. […] It is proposed that the rigidity imposed on the peptide backbone of the cyclic peptide reduced the ensemble ..."}, "brain [9]": {"tested_on": "brain", "settings": "MRI, mice; ref [19]; cited from earlier work", "description": "Previously, cyclic cHAVc1 (cyclo(1,8)Ac-CSHAVASC-NH2) and cHAVc3 (cyclo(1,6)Ac-CSHAVC-NH2) were prepared and compared to a linear HAV4 (Ac-SHAVAS-NH2) in modulating the intercellular junctions in vitro and in vivo [19]."}, "MDCK cell monolayers": {"tested_on": "MDCK cell monolayers", "settings": "ref [19], cited from earlier work", "description": "Previously, cyclic cHAVc1 (cyclo(1,8)Ac-CSHAVASC-NH2) and cHAVc3 (cyclo(1,6)Ac-CSHAVC-NH2) were prepared and compared to a linear HAV4 (Ac-SHAVAS-NH2) in modulating the intercellular junctions in vitro and in vivo [19]. […] An alanine scanning study was carried out to evaluate the role of each amino acid in HAV6 peptide, and the biological activity of each alanine mutant peptide was evaluated in lowering the TEER values of MDCK cell monolayers. Mutation of the Ser1 to Ala1 residue reduced the junction modulatory activity of the HAV6 mutant; ..."}, "BBB [10]": {"tested_on": "BBB", "settings": "disulfide cyclic peptides vs parent linear peptides; ref [19],[20]; cited from earlier work", "source_text": "The goal of this study was to design and synthesize novel cyclic peptides derived from HAV6 and ADTC5 peptides to improve their BBB modulatory activity and selectivity by forming a peptide bond from the N- to C-termini (Table 1, Figure 1). The hypothesis is that the formation of N-to-C-termini cyclic peptides increases the backbone rigidity of the peptide to improve binding affinity and selectivity for the EC1 domain of cadherin as well as improving plasma stability of the cyclic peptide compared to its parent linear peptide. Previously, cHAVc3 and ADTC5 cyclic peptides were formed using a dis ..."}}, "note": "“Also recorded” adds a separate entry of the source.", "data": [{"substance": "Ac-ADTPPV-NH2 [ADT6, linear ADT peptide of Bocsik et al]", "values": [{"measurement": "disruption of intercellular junctions (TEER), in words", "setting": "[1]", "value": "reversibly disrupts the intercellular junctions of primary brain endothelial cell monolayers"}]}, {"substance": "cyclo(1,6)Ac-CDTPPC-NH2 (disulfide) [ADTC6, earlier cyclic ADT peptide]", "values": [{"measurement": "activity of ADT peptide, in words", "setting": "[2]", "value": "lowered the activity of ADTC6 compared to ADTC5"}]}, {"substance": "Ac-SHAVSS-NH2 [HAV6, parent linear cadherin peptide]", "values": [{"measurement": "brain delivery of 15 kDa lysozyme vs control, in words", "setting": "brain (C57BL/6 mice) [3]", "value": "significantly enhanced the brain delivery of 15 kDa lysozyme compared to the control"}, {"measurement": "binding site on EC1 domain, in words", "setting": "EC1 domain of E-cadherin", "value": "bind to the EC1 domain of E-cadherin at the interface of cis-cadherin interactions"}, {"measurement": "brain delivery of various molecules, in words", "setting": "brain [4]; HAV6 and ADTC5 collectively, 14C-mannitol, PEG, daunomycin, R800, Gd-DTPA, cLABL, cIBR7, galbumin etc., ref [18],[19],[20],[21],[22],[23]", "value": "increase the brain delivery of various molecules"}, {"measurement": "oral and brain deliveries of eflornithine, in words", "setting": "brain [4]; rats, ref [25]", "value": "simultaneously increased"}, {"measurement": "survival and tumor growth, in words", "setting": "[5]; adenanthin + HAV6 vs adenanthin alone or placebo", "value": "increased survival and suppressed tumor growth"}, {"measurement": "delivery of adenanthin into brain, in words", "setting": "[5]; mice with medulloblastoma brain tumor", "value": "significantly improve the delivery of an anticancer drug, adenanthin, into the brains of mice"}, {"measurement": "BBB penetration of galbumin with 10-min delay after peptide, in words", "setting": "BBB [6]; 10-min delay between peptide and galbumin", "value": "does not allow the galbumin to cross the BBB"}, {"measurement": "brain deposition of galbumin, in words", "setting": "BBB [6]; galbumin 600 nmol/kg, living mice, MRI", "value": "significant brain deposition of galbumin"}, {"measurement": "BBB penetration of 65 kDa galbumin, delivered together with peptide, in words", "setting": "BBB [6]; high dose galbumin", "value": "can increase the BBB penetration of galbumin"}, {"measurement": "BBB window of opening for galbumin", "setting": "BBB [7]; 65 kDa galbumin, ref [22] for HAV6 galbumin data, none printed for ADTC5", "value": "< 10", "unit": "min"}, {"measurement": "opening window of BBB for small molecule (IRdye-R800 and Gd-DTPA)", "setting": "BBB [7]; IRdye-R800 and Gd-DTPA, ref [20],[21]", "value": "less than 1 h"}, {"measurement": "amount of IgG mAb in the brain (brain deposition)", "setting": "brains of C57BL/6 mice; IgG mAb 21.6 nmol/kg with or without 13 µmol/kg peptide, i.v. tail vein, 15 min circulation, PBS/0.5% Tween-20 perfusion, NIRF (Odyssey CLx) of brain homogenate, mean ± SEM", "value": "3.4 ± 0.4", "unit": "pmol/g brain"}, {"measurement": "brain delivery of IgG mAb compared to control (IgG mAb alone), in words", "setting": "brains of C57BL/6 mice; IgG mAb 21.6 nmol/kg, peptide 13 µmol/kg i.v., 15 min, ANOVA Student–Newman–Keuls", "value": "did not enhance brain delivery of IgG mAb compared to the control"}, {"measurement": "brain delivery of albumin vs control, in words", "setting": "brain (C57BL/6 mice) [8]", "value": "did not significantly enhance brain delivery of albumin; also recorded: no significant enhancement of albumin brain deposition"}]}, {"substance": "cyclo(1,6)Ac-CSHAVC-NH2 (disulfide) [cHAVc3, earlier disulfide cyclic HAV peptide]", "values": [{"measurement": "in vivo brain delivery of Gd-DTPA vs HAV4, in words", "setting": "brain [9]", "value": "better than a linear HAV4"}, {"measurement": "lowering of TEER values of MDCK cell monolayers vs HAV4, in words", "setting": "MDCK cell monolayers; TEER", "value": "better than a linear HAV4"}, {"measurement": "junction modulatory activity in MDCK cell monolayers, in words", "setting": "MDCK cell monolayers; compared to HAV4 (and cHAVc1)", "value": "more active compared to HAV4 and cHAVc1"}, {"measurement": "BBB modulatory activity and plasma stability vs parent linear peptides, in words", "setting": "BBB [10]", "value": "enhanced BBB modulatory activity and plasma stability compared to their parent linear peptides"}, {"measurement": "binding site on EC1 domain, in words", "setting": "EC1 domain of E-cadherin", "value": "bind to the EC1 domain of E-cadherin at the interface of cis-cadherin interactions"}]}]}
